Experimental data from the OPERA property sets (Mansouri et al. 2018).

conditions: not given

Row | SMILES | melting point [°C] | boiling point [°C] | log10 Henry constant (atm·m³/mol) | log10 Koa | log10 Koc (L/kg) | log10 biodegradation half-life (days) | log10 vapour pressure (mmHg) | ready biodegradability
1 | CCCCC1C(=O)N(c2ccccc2)N(c2ccccc2)C1=O | 105 |  |  |  |  |  |  | 
2 | c1ccc2cc3ccccc3cc2c1 | 215 | 340 | -4.25 | 7.55 | 4.31 | 2.09 | -5.19 | not readily biodegradable
3 | OCCCOCCCO |  |  |  |  |  |  |  | not readily biodegradable
4 | CCOc1ccc2nc(S(N)(=O)=O)sc2c1 | 189 |  |  |  |  |  |  | 
5 | O=C(Nc1cc(Cl)cc(Cl)c1O)c1c(O)c(Cl)cc(Cl)c1Cl | 210 |  |  |  |  |  |  | 
6 | CC(=O)OCC(C)OC(C)=O (stereo not given) |  | 190 |  |  |  |  |  | 
7 | O=C(O)Cc1ccc(Br)cc1 | 116 |  |  |  |  |  |  | 
8 | Cl[C@@H]1CCCC[C@H]1Cl | -1.5 | 200 |  |  |  |  |  | 
9 | Cc1ccc2ccc3cccc4ccc1c2c34 |  |  |  |  |  | 1.96 |  | 
10 | CCCCCCCCCCOC(=O)c1ccccc1C(=O)OCCCCCC | -4 |  |  |  |  |  |  | 
11 | Oc1ccc(Nc2ccc3ccccc3c2)cc1 | 140 |  |  |  |  |  |  | 
12 | NNC(=O)c1ccncc1 | 171 |  |  |  |  |  |  | 
13 | CCCCC(CC)COC(=O)COc1cc(Cl)c(Cl)cc1Cl (stereo not given) |  |  |  |  |  |  | -5.92 | 
14 | CCOC(=O)C(Br)C(=O)OCC | -54 |  |  |  |  |  |  | 
15 | COC(=O)c1ccccc1Br |  | 252 |  |  |  |  |  | 
16 | Nc1ccc(C2CCCCC2)cc1 | 54.5 |  |  |  |  |  |  | 
17 | CC1(C)C2CCC1(C)C(Cl)C2 (stereo not given) | 132 | 208 |  |  |  |  |  | 
18 | CCCOC(=O)C(C)C |  | 135 |  |  |  |  | 0.924 | 
19 | CCO[Si](C)(OCC)OCC |  | 142 |  |  |  |  |  | 

Row | SMILES | melting point [°C] | boiling point [°C] | log10 Henry constant (atm·m³/mol) | log10 Koa | log10 Koc (L/kg) | log10 biodegradation half-life (days) | log10 vapour pressure (mmHg) | ready biodegradability
20 | CCCCCCC(C)C | -80.3 | 143 |  |  |  | 0.699 | 0.793 | 
21 | CN1C(=O)C(O)N=C(c2ccccc2Cl)c2cc(Cl)ccc21 (stereo not given) | 206 |  |  |  |  |  |  | 
22 | CCOS(=O)(=O)OCC | -24 | 208 |  |  |  |  | -0.674 | readily biodegradable
23 | Cc1ccccc1NC(=O)c1ccccc1 | 146 |  |  |  |  |  |  | 
24 | Cc1ccccc1NC(=S)Nc1ccccc1C | 158 |  |  |  |  |  |  | 
25 | Cc1ccccc1C(=O)O | 104 | 259 |  |  |  |  | -3.18 | readily biodegradable
26 | C#CC(C)(C)C | -78.2 | 37.7 |  |  |  |  |  | 
27 | CC1OC(C)OC(C)O1 (stereo not given) | 12.6 | 124 |  |  |  |  | 1.04 | not readily biodegradable
28 | CCOC(=O)c1cnc2cc(OCC(C)C)c(OCC(C)C)cc2c1O | 290 |  |  |  |  |  |  | 
29 | CCCC(C)(Cl)Cl | 128 |  |  |  |  |  |  | 
30 | c1ccc(C2c3ccccc3-c3ccccc32)cc1 | 147 |  |  |  |  |  |  | 
31 | CC=CCC(C)=O |  | 127 |  |  |  |  |  | 
32 | Nc1c([N+](=O)[O-])cc(Cl)cc1[N+](=O)[O-] | 147 |  |  |  |  |  |  | 
33 | CCOC(=O)c1cccc(Cl)c1 |  | 243 |  |  |  |  |  | 
34 | CCCCCCBr | -84.7 | 155 |  |  |  |  | 0.591 | 
35 | O=C1NC(=O)C2C3C(C(O)(c4ccccc4)c4ccccn4)=CC(C3=C(c3ccccc3)c3ccccn3)C12 (stereo not given) | 194 |  |  |  |  |  |  | 
36 | CC(C)CCOC=O | -93.5 | 124 | -3.17 |  |  |  | 1.18 | 
37 | CCCCCCCCCCC=CCCCCCCCC(=O)O | 23 |  |  |  |  |  |  | 
38 | CC(C)C(=O)O | -46 | 154 | -6.05 |  |  |  | 0.258 | readily biodegradable

Row | SMILES | melting point [°C] | boiling point [°C] | log10 Henry constant (atm·m³/mol) | log10 Koa | log10 Koc (L/kg) | log10 biodegradation half-life (days) | log10 vapour pressure (mmHg) | ready biodegradability
39 | Clc1cc2c(cc1Cl)Oc1c(Cl)c(Cl)cc(Cl)c1O2 | 206 |  |  |  |  |  | -9.23 | 
40 | CNCCc1ccccc1 |  | 206 |  |  |  |  |  | 
41 | CC1=CCC(=C(C)C)CC1 |  | 186 | -1.58 |  |  |  | -0.129 | readily biodegradable
42 | CC1(C)CC(=O)NC(=O)C1 | 145 |  |  |  |  |  |  | 
43 | CN(C)c1ccc(N=C2C=CC(=O)C=C2)cc1 | 134 |  |  |  |  |  |  | 
44 | CC(=O)CCc1ccco1 |  | 203 |  |  |  |  |  | 
45 | O=C=Nc1ccc([N+](=O)[O-])cc1 | 57 |  |  |  |  |  |  | 
46 | CCCCCCCCCCCCCCCCCC(=O)OCC | 33 |  |  |  |  |  | -5.59 | 
47 | CCOC(=O)C1(C)OC(=O)N(c2cc(Cl)cc(Cl)c2)C1=O (stereo not given) | 113 |  |  |  |  |  | -7.02 | 
48 | CN1C(CCl)Nc2cc(Cl)c(S(N)(=O)=O)cc2S1(=O)=O (stereo not given) | 225 |  |  |  |  |  |  | 
49 | Brc1ccccc1Oc1ccccc1 |  |  |  | 7.24 |  |  |  | 
50 | COCC(F)F |  | 48.5 |  |  |  |  | 2.48 | 
51 | CCN(CC)C(=O)C(Cl)(Cl)Cl | 27 |  |  |  |  |  |  | 
52 | CC1=C(/C=C/C(C)=C/C=C/C(C)=C/CO)C(C)(C)CCC1 | 63.5 |  |  |  |  |  |  | 
53 | COc1ccc(OC)cc1 | 59 | 213 |  |  |  |  |  | readily biodegradable
54 | CC(=O)OO[N+](=O)[O-] |  | 106 | -3.56 |  |  |  |  | 
55 | NC(=O)C(Cl)Cl | 99.4 | 234 |  |  |  |  |  | 
56 | CCCCOC(=O)CCCCC(=O)OCCCC | -32.4 |  |  |  |  |  |  | readily biodegradable

same assay, conditions: fish

Row | SMILES | log10 BCF | log10 biotransformation half-life (days)
57 | Cl[C@H]1[C@H](Cl)[C@@H](Cl)[C@@H](Cl)[C@H](Cl)[C@H]1Cl (racemic) | 3.04 | 
58 | c1ccc2nc3ccc4ccccc4c3cc2c1 | 2.02 | 
59 | Oc1c(Br)cc(Br)cc1Br | 2.71 | 
60 | CC(C)(C)c1ccc(C(=O)O)cc1 | 0.66 | 
61 | Sc1nc2ccccc2[nH]1 | 0.41 | 
62 | CNC(=O)Oc1cccc2ccccc12 | 0.95 | -1.18
63 | Nc1cccc([N+](=O)[O-])c1 | 0.48 | -0.77
64 | Cc1cccc([N+](=O)[O-])c1 | 1.08 | -0.79
65 | c1ccc2cc3ccccc3cc2c1 | 3.26 | 0.65
66 | Cc1ccc2ccc3cccc4ccc1c2c34 |  | 0.11
67 | CC1OC(C)OC(C)O1 (stereo not given) | 0.48 | 
